Key:
KG1a = experiment: CellTiterblue viability, 72 hr, KG1a; format: cell-based; details: Homo sapiens, KG-1a, KG1a cells
Procedure: (§1) A number of studies were performed to analyze the consequences of tyrosine kinase inhibition in cell lines. To do this, 1000 cells are seeded in 27 μl/well in 384-well microplates, which are then placed in a humidified CO2 incubator at 37° C. overnight. The next day, 3 μl/well of 10× concentrated drug is added and the plates are returned to the incubator for 72 hr. After 72 hr incubation, plates are removed and […] CellTiterblue (Promega) viability reagent is added. Plates are returned to the incubator for 3 hr, after which it is fluorescence measurements are read on the Victor X3 plate reader (Perkin Elmer). Data are analyzed using Excel (Microsoft), and GI50 values are determined using Prism (Graphpad).

Abl kinase = target: T1, Abl kinase (Homo sapiens, UniProt P00519); experiment: KinaseProfiler kinase inhibition assay, Abl; format: biochemical; details: 1 μM compound
T1 construct: purchased Millipore (KinaseProfiler Service)
T1 sequence (P00519 whole entry): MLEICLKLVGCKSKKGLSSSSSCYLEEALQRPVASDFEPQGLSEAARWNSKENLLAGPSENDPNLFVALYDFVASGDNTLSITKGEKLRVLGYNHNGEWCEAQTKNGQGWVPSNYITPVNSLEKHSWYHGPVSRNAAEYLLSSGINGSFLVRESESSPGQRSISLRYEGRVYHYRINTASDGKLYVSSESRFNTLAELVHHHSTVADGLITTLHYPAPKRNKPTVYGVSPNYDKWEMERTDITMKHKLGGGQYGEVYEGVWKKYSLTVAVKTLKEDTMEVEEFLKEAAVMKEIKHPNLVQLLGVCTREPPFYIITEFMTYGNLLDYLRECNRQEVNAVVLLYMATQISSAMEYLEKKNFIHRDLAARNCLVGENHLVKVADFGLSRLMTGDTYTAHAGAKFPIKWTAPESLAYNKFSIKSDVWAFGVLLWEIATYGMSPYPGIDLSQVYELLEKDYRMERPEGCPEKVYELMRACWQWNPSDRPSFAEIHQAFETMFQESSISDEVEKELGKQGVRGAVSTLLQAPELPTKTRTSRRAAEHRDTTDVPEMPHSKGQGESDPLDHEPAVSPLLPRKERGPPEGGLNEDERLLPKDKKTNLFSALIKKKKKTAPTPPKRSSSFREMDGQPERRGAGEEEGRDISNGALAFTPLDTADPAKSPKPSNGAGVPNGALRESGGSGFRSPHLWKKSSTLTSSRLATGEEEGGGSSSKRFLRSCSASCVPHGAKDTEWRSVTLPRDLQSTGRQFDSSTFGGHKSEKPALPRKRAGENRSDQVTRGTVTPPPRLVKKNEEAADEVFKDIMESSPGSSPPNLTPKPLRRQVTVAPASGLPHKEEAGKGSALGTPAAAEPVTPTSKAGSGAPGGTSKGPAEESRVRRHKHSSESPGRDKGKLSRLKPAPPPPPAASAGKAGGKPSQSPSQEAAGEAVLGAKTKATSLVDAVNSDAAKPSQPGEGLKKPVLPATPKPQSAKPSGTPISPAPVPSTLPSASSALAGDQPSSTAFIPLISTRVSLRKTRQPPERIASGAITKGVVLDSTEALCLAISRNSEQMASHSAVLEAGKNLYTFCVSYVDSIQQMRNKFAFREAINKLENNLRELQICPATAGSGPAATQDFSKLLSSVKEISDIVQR

KDR kinase = target: T2, KDR kinase (Homo sapiens, UniProt P35968); experiment: KinaseProfiler kinase inhibition assay, KDR; format: biochemical; details: 1 μM compound
T2 construct: purchased Millipore (KinaseProfiler Service)

c-Src kinase = target: T3, c-Src kinase (Homo sapiens, UniProt P12931); experiment: KinaseProfiler kinase inhibition assay, c-Src; format: biochemical; details: 1 μM compound; read-out: % Inhibition @1 μM cSrc
T3 construct: purchased Millipore (KinaseProfiler Service)
T3 sequence (P12931 whole entry): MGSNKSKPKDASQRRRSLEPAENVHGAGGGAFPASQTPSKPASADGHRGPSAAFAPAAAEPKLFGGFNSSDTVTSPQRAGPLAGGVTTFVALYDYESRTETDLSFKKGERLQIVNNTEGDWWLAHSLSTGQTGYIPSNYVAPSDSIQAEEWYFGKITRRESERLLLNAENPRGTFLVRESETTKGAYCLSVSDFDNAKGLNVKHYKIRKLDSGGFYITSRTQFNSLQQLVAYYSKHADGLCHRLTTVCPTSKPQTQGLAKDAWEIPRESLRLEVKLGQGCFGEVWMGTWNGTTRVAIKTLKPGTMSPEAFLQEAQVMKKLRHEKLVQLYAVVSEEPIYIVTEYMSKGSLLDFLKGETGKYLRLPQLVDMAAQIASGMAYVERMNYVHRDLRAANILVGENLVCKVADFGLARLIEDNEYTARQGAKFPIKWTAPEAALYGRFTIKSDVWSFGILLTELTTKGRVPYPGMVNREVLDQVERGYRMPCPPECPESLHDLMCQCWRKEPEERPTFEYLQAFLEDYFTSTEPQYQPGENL

Kato III = experiment: CellTiterblue viability, 72 hr, Kato III; format: cell-based; details: Homo sapiens, Kato III cells
Procedure: as §1

Ret kinase = target: T4, Ret kinase (Homo sapiens, UniProt P07949); experiment: KinaseProfiler kinase inhibition assay, Ret; format: biochemical; details: 1 μM compound
T4 construct: purchased Millipore (KinaseProfiler Service)

AN3_CA = experiment: CellTiterblue viability, 72 hr, AN3_CA; format: cell-based; details: Homo sapiens, AN3-CA, AN3_CA cells
Procedure: as §1

RT112 = experiment: CellTiterblue viability, 72 hr, RT112; format: cell-based; details: Homo sapiens, RT-112, RT112 cells
Procedure: as §1

phospho-FGFR2 = target: T5, phospho-FGFR2 (Homo sapiens, UniProt P21802); experiment: phospho-FGFR ELISA on Kato III cells; format: cell-based; details: read-out: EC50 (nM) P-FGFR2, Kato III cells
T5 construct: endogenous in cells; host or cells: Kato III cells
T5 sequence (P21802 22-766 isoform P21802-8 limits assumed): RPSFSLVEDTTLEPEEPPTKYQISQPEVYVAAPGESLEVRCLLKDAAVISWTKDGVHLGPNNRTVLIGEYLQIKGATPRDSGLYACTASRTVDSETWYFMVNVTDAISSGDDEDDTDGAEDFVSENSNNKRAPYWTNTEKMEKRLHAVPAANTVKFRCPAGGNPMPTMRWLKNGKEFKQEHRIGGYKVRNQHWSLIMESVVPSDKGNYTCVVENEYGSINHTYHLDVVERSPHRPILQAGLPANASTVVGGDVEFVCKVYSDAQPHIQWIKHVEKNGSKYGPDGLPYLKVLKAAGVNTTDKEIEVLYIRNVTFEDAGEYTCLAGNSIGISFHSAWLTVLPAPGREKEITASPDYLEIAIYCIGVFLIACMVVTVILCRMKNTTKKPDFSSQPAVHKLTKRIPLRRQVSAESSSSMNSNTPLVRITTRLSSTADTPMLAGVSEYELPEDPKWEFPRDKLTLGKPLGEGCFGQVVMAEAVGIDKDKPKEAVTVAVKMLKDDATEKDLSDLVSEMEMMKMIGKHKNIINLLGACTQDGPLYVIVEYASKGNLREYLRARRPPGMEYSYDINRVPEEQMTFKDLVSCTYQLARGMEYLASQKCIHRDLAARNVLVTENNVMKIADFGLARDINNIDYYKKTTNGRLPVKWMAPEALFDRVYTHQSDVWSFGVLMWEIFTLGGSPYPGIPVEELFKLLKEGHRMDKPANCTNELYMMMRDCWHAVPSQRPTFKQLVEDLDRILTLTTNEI
Procedure: For the phospho-FGFR, the following assay Protocol was used. 25,000 cells are seeded in 90 μl/well in 96-well microplates, which are then placed in a humidified CO2 incubator at 37° C. overnight. 96-well ELISA plates (Mesoscale Discovery) are coated with capture antibody (R&D Systems Duo-Set) at 4 μg/ml, 30 μl/well. The next day, 10 μl/well of 10× concentrated drug is added and the plates are returned to the incubator for […]. ELISA plates are washed using an automated plate washer (BioTek Instruments). After 30 min, cells are inverted and gently tapped to remove excess medium, and immediately placed on ice. 30 μl mPer cell lysis reagent (Thermo Scientific) with protease and phosphatase inhibitors is added/well. After 15 min on ice, lysates are mixed and 30 μl transferred to the ELISA plate. Plates are incubated for 2 hr, washed, and 30 μl/well detection antibody is added. After 1 hr, plates are washed and 30 μl “SulfoTag” (MesoScale Discovery) detection reagent is added. After 1 hr, plates are washed and 150 μl/well read solution is added. Electrochemiluminescence is determined on the Mesoscale Discovery Sector Imager 2000. Data are analyzed using Excel (Microsoft), and EC50 values are determined using Prism (Graphpad).

Alk kinase = target: T6, Alk kinase (Homo sapiens, UniProt Q9UM73); experiment: KinaseProfiler kinase inhibition assay, Alk; format: biochemical; details: 1 μM compound
T6 construct: purchased Millipore (KinaseProfiler Service)
T6 sequence (Q9UM73 19-1620): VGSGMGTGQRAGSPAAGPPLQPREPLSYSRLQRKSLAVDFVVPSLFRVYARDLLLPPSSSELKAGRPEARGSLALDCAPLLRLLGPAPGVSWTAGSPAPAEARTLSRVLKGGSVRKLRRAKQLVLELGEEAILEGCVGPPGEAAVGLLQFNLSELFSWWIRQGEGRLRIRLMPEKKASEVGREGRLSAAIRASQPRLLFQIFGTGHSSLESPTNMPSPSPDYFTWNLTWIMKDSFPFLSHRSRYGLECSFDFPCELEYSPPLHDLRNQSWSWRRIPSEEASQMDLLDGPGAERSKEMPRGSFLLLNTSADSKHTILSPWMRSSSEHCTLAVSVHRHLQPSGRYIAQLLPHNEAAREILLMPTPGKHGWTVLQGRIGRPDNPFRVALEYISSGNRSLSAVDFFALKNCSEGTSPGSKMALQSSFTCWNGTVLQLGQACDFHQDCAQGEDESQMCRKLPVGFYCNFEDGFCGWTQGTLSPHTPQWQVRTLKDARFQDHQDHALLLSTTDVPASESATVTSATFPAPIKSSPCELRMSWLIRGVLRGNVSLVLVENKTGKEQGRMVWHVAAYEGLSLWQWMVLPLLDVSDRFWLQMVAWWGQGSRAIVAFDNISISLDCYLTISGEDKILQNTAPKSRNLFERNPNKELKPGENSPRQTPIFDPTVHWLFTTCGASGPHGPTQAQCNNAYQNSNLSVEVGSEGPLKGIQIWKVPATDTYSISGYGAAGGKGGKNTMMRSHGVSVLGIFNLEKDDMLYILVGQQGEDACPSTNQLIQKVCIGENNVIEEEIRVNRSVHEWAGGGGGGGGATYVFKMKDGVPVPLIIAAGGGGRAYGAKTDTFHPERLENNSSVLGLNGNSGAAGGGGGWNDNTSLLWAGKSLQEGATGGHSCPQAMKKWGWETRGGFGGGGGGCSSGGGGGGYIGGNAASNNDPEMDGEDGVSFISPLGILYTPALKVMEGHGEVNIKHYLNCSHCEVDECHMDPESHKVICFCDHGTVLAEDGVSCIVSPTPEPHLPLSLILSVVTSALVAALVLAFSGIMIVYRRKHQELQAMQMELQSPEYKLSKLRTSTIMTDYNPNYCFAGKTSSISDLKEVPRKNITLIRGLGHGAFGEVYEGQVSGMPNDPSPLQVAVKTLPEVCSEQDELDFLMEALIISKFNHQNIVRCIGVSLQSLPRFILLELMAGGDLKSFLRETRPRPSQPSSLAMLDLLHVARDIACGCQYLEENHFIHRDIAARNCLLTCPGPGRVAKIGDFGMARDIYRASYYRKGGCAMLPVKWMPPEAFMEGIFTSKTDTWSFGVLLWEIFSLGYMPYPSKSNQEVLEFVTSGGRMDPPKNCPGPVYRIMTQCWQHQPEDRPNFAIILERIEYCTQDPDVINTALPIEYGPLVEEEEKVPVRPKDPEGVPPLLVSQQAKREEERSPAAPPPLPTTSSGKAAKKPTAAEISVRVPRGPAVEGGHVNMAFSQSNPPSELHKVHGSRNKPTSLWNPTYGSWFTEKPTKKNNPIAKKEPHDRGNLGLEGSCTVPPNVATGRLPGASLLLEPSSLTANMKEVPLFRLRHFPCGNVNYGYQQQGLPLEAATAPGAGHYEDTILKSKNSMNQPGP

Tie2 = target: T7, Tie2 (Homo sapiens, UniProt Q02763); experiment: KinaseProfiler kinase inhibition assay, Tie2; format: biochemical; details: 1 μM compound
T7 construct: purchased Millipore (KinaseProfiler Service)
T7 sequence (Q02763 23-1124): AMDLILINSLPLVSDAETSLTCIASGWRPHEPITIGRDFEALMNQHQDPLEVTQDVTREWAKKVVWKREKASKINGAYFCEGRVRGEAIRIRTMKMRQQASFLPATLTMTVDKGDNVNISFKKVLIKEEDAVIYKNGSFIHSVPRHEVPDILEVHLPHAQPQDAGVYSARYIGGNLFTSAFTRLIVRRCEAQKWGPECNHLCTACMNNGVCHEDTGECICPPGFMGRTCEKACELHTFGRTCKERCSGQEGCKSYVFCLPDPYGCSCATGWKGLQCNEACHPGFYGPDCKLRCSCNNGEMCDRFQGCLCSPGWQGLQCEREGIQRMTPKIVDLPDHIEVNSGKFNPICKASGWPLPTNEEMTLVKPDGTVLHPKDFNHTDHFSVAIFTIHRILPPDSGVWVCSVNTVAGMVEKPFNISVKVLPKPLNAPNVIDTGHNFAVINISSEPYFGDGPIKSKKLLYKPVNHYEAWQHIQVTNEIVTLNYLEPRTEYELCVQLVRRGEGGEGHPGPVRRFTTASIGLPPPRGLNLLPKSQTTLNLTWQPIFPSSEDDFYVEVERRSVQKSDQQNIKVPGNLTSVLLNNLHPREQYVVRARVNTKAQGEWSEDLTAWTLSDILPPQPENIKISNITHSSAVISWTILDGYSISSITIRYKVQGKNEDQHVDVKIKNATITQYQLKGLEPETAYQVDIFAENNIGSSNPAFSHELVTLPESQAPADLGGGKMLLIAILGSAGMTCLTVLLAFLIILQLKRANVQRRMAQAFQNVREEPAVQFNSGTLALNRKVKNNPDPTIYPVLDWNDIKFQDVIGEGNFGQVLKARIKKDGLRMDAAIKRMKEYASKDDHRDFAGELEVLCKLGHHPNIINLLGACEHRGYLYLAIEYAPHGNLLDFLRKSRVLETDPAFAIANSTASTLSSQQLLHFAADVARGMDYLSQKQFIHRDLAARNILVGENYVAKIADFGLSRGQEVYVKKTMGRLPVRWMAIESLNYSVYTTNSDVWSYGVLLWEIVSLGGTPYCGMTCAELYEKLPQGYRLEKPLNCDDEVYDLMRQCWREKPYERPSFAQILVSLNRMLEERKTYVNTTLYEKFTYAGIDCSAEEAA

FGFR1 kinase = target: T8, FGFR1 kinase (Homo sapiens, UniProt P11362); experiment: KinaseProfiler kinase inhibition assay, FGFR1; format: biochemical; details: 1 μM compound
T8 construct: purchased Millipore (KinaseProfiler Service)

MDA-MB134 = experiment: CellTiterblue viability, 72 hr, MDA-MB134; format: cell-based; details: MDA-MB134 cells
Procedure: as §1

| SMILES | inhibition at 1 µM (Abl kinase) [%] | inhibition at 1 µM (KDR kinase) [%] | inhibition at 1 µM (c-Src kinase) [%] | inhibition at 1 µM (Ret kinase) [%] | EC50 (phospho-FGFR2) [nM] | inhibition at 1 µM (Alk kinase) [%] | inhibition at 1 µM (Tie2) [%] | inhibition at 1 µM (FGFR1 kinase) [%] | GI50 (MDA-MB134) [nM] | GI50 (KG1a) [nM] | GI50 (Kato III) [nM] | GI50 (AN3_CA) [nM] | GI50 (RT112) [nM] |
| --- | --- | --- | --- | --- | --- | --- | --- | --- | --- | --- | --- | --- | --- |
| COc1ccc(-c2cc(Nc3cc(Oc4ccc5[nH]c(C)cc5c4F)ncn3)n[nH]2)cc1OC [Example 5] | 63 | 97 | 65 | 77 | > 100 | -10 | 45 | 93 |  | > 100 | > 500 | 211 | > 100 |
| CCN1CCN(c2ccc(Nc3ncnc(Oc4ccc5[nH]c(C)cc5c4F)c3C#N)cc2)CC1 [Compound 53] | 11 | 98 | 10 | -25 | 18 | 49 | 5 | 100 | 5 | 10 | 34 | > 500 | > 500 |
| COc1cc(CCc2cc(Nc3cc(Oc4ccc5[nH]c(C)cc5c4F)ncn3)n[nH]2)cc(OC)c1 [Example 22] | 19 | 96 | 9 | 25 | > 100 | 15 | 18 | 98 |  | > 100 | 229 | > 500 | > 100 |
| CCN1CCN(c2ccc(Nc3ncnc(Oc4ccc5[nH]c(C)cc5c4F)c3F)cc2)CC1 [Example 25] | 7 | 95 | 11 | -11 | > 100 | 69 | 0 | 96 |  | > 100 | > 500 | > 500 | > 100 |

Second part, led by results:

| inhibition at 1 µM (Abl kinase) [%] | inhibition at 1 µM (KDR kinase) [%] | inhibition at 1 µM (c-Src kinase) [%] | inhibition at 1 µM (Ret kinase) [%] | EC50 (phospho-FGFR2) [nM] | inhibition at 1 µM (Alk kinase) [%] | inhibition at 1 µM (Tie2) [%] | inhibition at 1 µM (FGFR1 kinase) [%] | GI50 (MDA-MB134) [nM] | SMILES | GI50 (KG1a) [nM] | GI50 (Kato III) [nM] | GI50 (AN3_CA) [nM] | GI50 (RT112) [nM] |
| --- | --- | --- | --- | --- | --- | --- | --- | --- | --- | --- | --- | --- | --- |
| 32 | 97 | 35 | 48 | > 100 | 53 | 31 | 97 |  | Cc1cc2c(F)c(Oc3cc(Nc4ccc(N5CCN(C)CC5)c(F)c4)ncn3)ccc2[nH]1 [Example 14] | > 100 | > 500 | 483 | > 100 |
| 19 | 96 | 9 | 25 | > 100 | 15 | 18 | 98 |  | Cc1cc2c(F)c(Oc3ncnc(Nc4ccc(N5CCN(C)CC5)cn4)c3Cl)ccc2[nH]1 [Compound 34, 5-chloro-6-((4-fluoro-2-methyl-1H-indol-5-yl)oxy)-N-(5-(4-methylpiperazin-1-yl)pyridin-2-yl)pyrimidin-4-amine] | > 100 | 229 | > 500 | > 100 |
| 0 | 54 | -7 | -33 | > 500 | -21 | -9 | 40 | 138 | Cc1cc2c(F)c(Oc3ncnc(Nc4cc(C5CC5)n[nH]4)c3F)ccc2[nH]1 [Compound 32, N-(3-cyclopropyl-1H-pyrazol-5-yl)-5-fluoro-6-((4-fluoro-2-methyl-1H-indol-5-yl)oxy) pyrimidin-4-amine] | > 500 | > 500 | > 500 | > 500 |
| 13 | 20 | 8 | -19 | > 100 | 40 | -12 | -4 |  | Cc1cc2c(F)c(Oc3cc(N4CCN(c5ccc(N)cc5F)CC4)ncn3)ccc2[nH]1 [Example 10] | > 100 | 142 | 33 | > 100 |
| 68 | 96 | 74 | 53 | 75 | 69 | 69 | 99 | 56 | CCN1CCN(c2ccc(Nc3cc(Oc4cc(F)c5[nH]c(C)cc5c4F)ncn3)cc2)CC1 [Compound 49] | 60 | 207 | > 500 | > 500 |

— patent publication US10766879B2, “Pyrimidine derivatives as kinase inhibitors and their therapeutical applications” (NantBioScience, Inc., priority 2015, dated 2020)
